{"source": "patent US8992998B2", "about": "“MAPK inhibition by H2” (priority 2010, dated 2015)", "key": {"[1]": {"system": "LPS-induced endotoxin shock", "assay": "LPS-induced endotoxin shock in mice: survival rate and plasma/serum TNF-α and IL-6", "type": "in vivo, C57BL/6j mice"}, "BMMs": {"system": "BMMs", "assay": "Proinflammatory cytokine production (ELISA) from stimulated bone marrow derived macrophages", "type": "cell-based, mouse", "settings": "for IL-6 production induced by LPS (Example 5): FIG. 5C"}, "[2]": {"system": "ROS (hydroxyl radical, superoxide, H2O2) in BMMs", "assay": "Intracellular ROS production in LPS-stimulated BMMs (HPF / CM-H2DCFDA fluorescence)", "type": "cell-based, mouse", "description": "Invitrogen) detects superoxide, H2O2, and hydroxyl radical. […] After preculture, the cells were exposed to LPS ([…]) for 30 minutes and immediately HPF fluorescence or fluorophore DCF were detected at an excitation wavelength of 485 nm and an emission wavelength of 530 nm with a fluorometric imaging plate reader, Synergy HT (Biotech Instruments, Winooski, Vt.)."}, "[3]": {"system": "MAPKs (ERK, p38, and JNK)", "assay": "Immunoblotting of MAPKs phosphorylation in stimulated BMMs", "type": "cell-based, mouse"}, "[4]": {"system": "MAPKs (ERK, p38, and JNK)", "assay": "Phosphorylated MAPKs levels in peritoneal cells isolated from treated mice", "type": "in vivo, mouse", "settings": "i.p., 45 minutes prior to isolation", "description": "After 45 minutes, peritoneal suspensions were obtained by peritoneal lavage as previously described. […] The peritoneal cells were immediately lysed in lysis buffer and performed Immunoblotting as described above."}, "DCs": {"system": "DCs", "settings": "LPS stimulation"}, "[5]": {"system": "MAPKs (ERK, p38, and JNK)", "settings": "non-stimulated BMMs, time dependent"}, "MKP-1": {"system": "MKP-1", "settings": "BMMs, within 20 minutes"}, "p38b": {"biological_target": "p38b (Homo sapiens, UniProt Q15759)", "sequence (Q15759 whole entry, species assumed)": "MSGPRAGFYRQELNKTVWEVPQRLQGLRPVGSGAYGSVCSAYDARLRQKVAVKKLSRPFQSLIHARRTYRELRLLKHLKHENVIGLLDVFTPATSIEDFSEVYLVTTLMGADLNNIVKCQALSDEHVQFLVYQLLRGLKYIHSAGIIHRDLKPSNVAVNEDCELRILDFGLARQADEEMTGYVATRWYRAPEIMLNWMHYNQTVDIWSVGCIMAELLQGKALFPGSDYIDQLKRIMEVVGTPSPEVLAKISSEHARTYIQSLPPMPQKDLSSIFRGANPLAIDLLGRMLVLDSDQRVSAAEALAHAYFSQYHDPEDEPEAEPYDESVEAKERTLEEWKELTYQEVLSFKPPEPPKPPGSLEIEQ", "settings": "cited from earlier work"}, "p38gamma": {"biological_target": "T1, p38gamma (Homo sapiens, UniProt P53778)", "T1 sequence (P53778 1-367)": "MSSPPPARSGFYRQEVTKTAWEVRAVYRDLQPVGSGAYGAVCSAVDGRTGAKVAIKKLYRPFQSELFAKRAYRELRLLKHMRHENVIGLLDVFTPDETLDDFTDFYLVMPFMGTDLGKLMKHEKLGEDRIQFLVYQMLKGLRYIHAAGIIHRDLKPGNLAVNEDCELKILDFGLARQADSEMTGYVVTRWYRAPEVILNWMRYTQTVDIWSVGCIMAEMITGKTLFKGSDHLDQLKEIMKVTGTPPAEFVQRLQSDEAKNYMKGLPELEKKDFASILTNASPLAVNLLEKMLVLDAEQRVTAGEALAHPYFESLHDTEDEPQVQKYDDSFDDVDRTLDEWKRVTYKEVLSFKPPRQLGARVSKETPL", "settings": "cited from earlier work"}, "p38delta": {"biological_target": "T2, p38delta (Homo sapiens, UniProt O15264)", "T2 sequence (O15264 1-365)": "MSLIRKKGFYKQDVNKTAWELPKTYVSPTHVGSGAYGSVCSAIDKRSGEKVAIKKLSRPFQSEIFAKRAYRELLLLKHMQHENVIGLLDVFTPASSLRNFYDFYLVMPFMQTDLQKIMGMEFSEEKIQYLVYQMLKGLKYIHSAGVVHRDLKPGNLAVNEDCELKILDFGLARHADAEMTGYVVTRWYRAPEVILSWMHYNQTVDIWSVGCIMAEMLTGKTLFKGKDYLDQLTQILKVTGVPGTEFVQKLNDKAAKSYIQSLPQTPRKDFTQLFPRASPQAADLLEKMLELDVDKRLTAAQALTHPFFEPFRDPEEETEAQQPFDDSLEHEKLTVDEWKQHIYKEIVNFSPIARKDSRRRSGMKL", "settings": "cited from earlier work"}, "[6]": {"settings": "lethal dose of LPS, treatment i.p., plasma 4 hour after LPS"}}}
{"smiles": "[HH]", "note": "[H2, molecular hydrogen]", "values": [{"measurement": "survival rate", "setting": "[1]; mouse, in vivo", "value": 90, "unit": "%"}, {"measurement": "protection from lethal endotoxin shock", "setting": "[1]; mouse, in vivo, po", "value": "prevented the mice from lethal endotoxin shock"}, {"measurement": "IL-6 production in serum", "setting": "[1]; oral administration", "value": "down-regulation"}, {"measurement": "TNF-a production in serum", "setting": "[1]; oral administration", "value": "down-regulation"}, {"measurement": "IL-6 production", "setting": "BMMs; LPS stimulation", "value": "suppressed"}, {"measurement": "IL-12p40 production", "setting": "BMMs; LPS stimulation", "value": "suppressed"}, {"measurement": "TNF-α production", "setting": "BMMs; LPS stimulation", "value": "suppressed"}, {"measurement": "IL-6 production induced by LPS (Example 5)", "setting": "BMMs", "value": "down-regulated"}, {"measurement": "IL-6 production induced by PGN", "setting": "BMMs", "value": "down-regulated"}, {"measurement": "IL-6 production induced by poly(I:C)", "setting": "BMMs", "value": "down-regulated"}, {"measurement": "TNF-α production induced by poly(I:C)", "setting": "BMMs", "value": "suppressed"}, {"measurement": "LPS-mediated induction of fluorescence from DCF (superoxide, H2O2, or hydroxyl radical)", "setting": "[2]", "value": "not affected"}, {"measurement": "LPS-mediated induction of hydroxyl radical (HPF)", "setting": "[2]", "value": "suppressed"}, {"measurement": "phosphorylation level of MAPKs induced by LPS", "setting": "[3]; LPS, ERK, p38 and JNK", "value": "obviously decreased"}, {"measurement": "level of phosphorylated ERK, LPS-induced", "setting": "[3]; LPS, FIG. 5E", "value": "decreased"}, {"measurement": "PGN-induced phosphorylation of ERK and p38", "setting": "[3]", "value": "blocked"}, {"measurement": "poly(I:C)-induced MAPKs phosphorylation", "setting": "[3]", "value": "attenuated"}, {"measurement": "phosphorylation of MAPKs in peritoneal cells", "setting": "[4]", "value": "decreased"}, {"measurement": "IL-6 production", "setting": "DCs", "value": "suppressed"}, {"measurement": "IL-12p40 production", "setting": "DCs", "value": "suppressed"}, {"measurement": "TNF-α production", "setting": "DCs", "value": "suppressed"}, {"measurement": "basal levels of phosphorylated ERK, p38, and JNK", "setting": "[5]", "value": "decreased"}, {"measurement": "expression of MKP-1 protein", "setting": "MKP-1", "value": "up-regulated"}, {"measurement": "H2 concentration at saturation", "setting": "PBS or culture medium, 25° C.", "value": 780, "unit": "mM"}, {"measurement": "pH", "setting": "saturated H2 in water", "value": 7.6}, {"measurement": "redox potential (ORP level)", "setting": "saturated H2 in water", "value": "−511", "unit": "mV"}]}
{"smiles": "CC(=O)N[C@@H](CS)C(=O)O", "note": "[NAC, N-acetyl-L-cysteine, reference compound]", "values": [{"measurement": "serum IL-6 production", "setting": "[1]; [6]", "value": "significantly suppressed"}, {"measurement": "serum TNF-α production", "setting": "[1]; [6]", "value": "significantly suppressed"}, {"measurement": "survival rate", "setting": "[1]; mouse, in vivo", "value": 20, "unit": "%"}, {"measurement": "survival rate", "setting": "[1]; mouse, in vivo, ip", "value": 70, "unit": "%"}, {"measurement": "IL-6 production induced by LPS (Example 5)", "setting": "BMMs", "value": "still inhibited"}, {"measurement": "IL-6 production induced by PGN", "setting": "BMMs", "value": "did not inhibit"}, {"measurement": "IL-6 production induced by poly(I:C)", "setting": "BMMs", "value": "did not inhibit"}, {"measurement": "TNF-α production induced by poly(I:C)", "setting": "BMMs", "value": "not"}, {"measurement": "LPS-mediated induction of fluorescence from DCF (superoxide, H2O2, or hydroxyl radical)", "setting": "[2]", "value": "remarkably inhibited"}, {"measurement": "LPS-mediated induction of hydroxyl radical (HPF)", "setting": "[2]", "value": "suppressed"}, {"measurement": "PGN-induced phosphorylation of ERK and p38", "setting": "[3]", "value": "inhibited little or no"}, {"measurement": "poly(I:C)-induced MAPKs phosphorylation", "setting": "[3]", "value": "not"}, {"measurement": "phosphorylation of MAPKs in peritoneal cells", "setting": "[4]", "value": "did not reduce"}]}
{"smiles": "C[S+]([O-])c1ccc(-c2nc(-c3ccncc3)c(-c3ccc(F)cc3)[nH]2)cc1", "note": "(stereo not drawn) [SB203580]", "values": [{"measurement": "sensitivity to inhibition", "setting": "p38b", "value": "sensitive"}, {"measurement": "sensitivity to inhibition", "setting": "p38gamma", "value": "unaffected"}, {"measurement": "sensitivity to inhibition", "setting": "p38delta", "value": "unaffected"}]}
